From publication PMC6691788, “Design and synthesis of phthalazine-based compounds as potent anticancer agents with potential antiangiogenic activity via VEGFR-2 inhibition” (Journal of Enzyme Inhibition and Medicinal Chemistry, 2019)

Key:
[1] = tested on: SF-539; assay: NCI 60 cell panel SRB screen; format: cell-based, human; settings: Homo sapiens, SF-539, 5 log dose
[2] = tested on: M14; assay: NCI 60 cell panel SRB screen; format: cell-based; settings: Homo sapiens; for activity at 10 µM: M14, read-out: percent cell growth promotion
[3] = tested on: SK-MEL-2; assay: NCI 60 cell panel SRB screen; format: cell-based; settings: Homo sapiens
[4] = tested on: SNB-75; assay: NCI 60 cell panel SRB screen; format: cell-based; settings: Homo sapiens; for activity at 10 µM: SNB-75, single dose 10 μM, read-out: percent cell growth promotion
[5] = tested on: EKVX; assay: NCI 60 cell panel SRB screen; format: cell-based, human; settings: Homo sapiens, 5 log dose
[6] = tested on: 786-0; assay: NCI 60 cell panel SRB screen; format: cell-based; settings: Homo sapiens; for activity at 10 µM: 786-0, single dose 10 μM, read-out: percent cell growth promotion
[7] = tested on: BT-549; assay: NCI 60 cell panel SRB screen; format: cell-based; settings: Homo sapiens; for activity at 10 µM: BT-549, read-out: percent cell growth promotion
[8] = tested on: full NCI 60 cell panel; assay: NCI 60 cell panel SRB screen, whole panel; format: cell-based, human; settings: Homo sapiens, 60 cell, NCI 5-log dose, full 60 cell panel; read-out: GI50 values, range over the tested cell lines
[9] = tested on: MCF7; assay: NCI 60 cell panel SRB screen; format: cell-based; settings: Homo sapiens; for activity at 10 µM: MCF7, read-out: percent cell growth promotion
[10] = tested on: IGROV1; assay: NCI 60 cell panel SRB screen; format: cell-based; settings: Homo sapiens, IGROV-1; for activity at 10 µM: IGROV1, single dose 10 μM, read-out: percent cell growth promotion
[11] = tested on: UO-31; assay: NCI 60 cell panel SRB screen; format: cell-based; settings: Homo sapiens; for activity at 10 µM: UO-31, single dose 10 μM, read-out: percent cell growth promotion
[12] = tested on: UACC-62; assay: NCI 60 cell panel SRB screen; format: cell-based; settings: for activity at 10 µM: UACC-62, read-out: percent cell growth promotion

`Cc1nnc(Nc2ccc(NC(=O)Nc3ccc(Cl)cc3)cc2)c2ccccc12` [Compound 6e, 1–(4-Chlorophenyl)-3–(4-(4-methylphthalazin-1-ylamino)phenyl)urea] showed a GI50 [1] of 1.61 µM, an IC (TGI) [1] of 3.32 µM and a CC50 ([1]; 48 h, read-out: LC50 (the source's name)) of 6.83 µM. For the same molecule, the GI50 ([2]; M14) was 1.76 µM, the IC (TGI) ([2]; M14, read-out: TGI) was 3.57 µM and the activity at 10 µM [2] was 37.3%. The CC50 ([2]; M14, 5 log dose, 48 h, read-out: LC50 (the source's name)) was 7.27 µM, the GI50 [3] was 2.22 µM and the IC (TGI) ([3]; read-out: TGI) was 4.59 µM. It also gave a CC50 ([3]; SK-MEL-2, 5 log dose, 48 h, read-out: LC50 (the source's name)) of 9.5 µM, a GI50 ([4]; SNB-75, 5 log dose) of 1.91 µM and an IC (TGI) ([4]; SNB-75, 5 log dose) of 5.49 µM. The LC50 (concentration killing 50% of cells) ([4]; SNB-75, 5 log dose, 48 h) was 21.3 µM, the activity at 10 µM [4] was 68.1% and the GI50 [5] was 3.47 µM. It also gave an IC (TGI) [5] of 17.9 µM, an LC50 ([5]; 48 h) of 87.8 µM and a GI50 ([6]; 786-0, 5 log dose) of 1.71 µM. For the same molecule, the IC (TGI) ([6]; 786-0, 5 log dose) was 3.34 µM, the CC50 ([6]; 786-0, 5 log dose, 48 h, read-out: LC50 (the source's name)) was 6.55 µM and the activity at 10 µM [6] was -27.9%. For the same molecule, the GI50 ([7]; BT-549) was 2.21 µM, the IC (TGI) ([7]; BT-549, read-out: TGI) was 5.55 µM and the activity at 10 µM [7] was 11.4%. The CC50 ([7]; BT-549, 5 log dose, 48 h, read-out: LC50 (the source's name)) was 66 µM, the GI50 [8] was 0.15 to 8.41 µM and the GI50 ([9]; MCF7) was 2.21 µM. It also gave an IC (TGI) ([9]; MCF7, read-out: TGI) of 10.9 µM, an activity at 10 µM [9] of 24.9% and a CC50 ([9]; MCF7, 5 log dose, 48 h, read-out: LC50 (the source's name)) of 68.7 µM. For the same molecule, the GI50 ([10]; IGROV1, 5 log dose) was 3.98 µM, the IC (TGI) ([10]; IGROV1, 5 log dose) was 19.5 µM and the CC50 ([10]; IGROV1, 5 log dose, 48 h, read-out: LC50 (the source's name)) was greater than 100 µM. The activity at 10 µM [10] was 62%, the GI50 ([11]; UO-31, 5 log dose) was 2.14 µM and the IC (TGI) ([11]; UO-31, 5 log dose) was 6.01 µM. The CC50 ([11]; UO-31, 5 log dose, 48 h, read-out: LC50 (the source's name)) was 31.8 µM, the activity at 10 µM [11] was 51.2% and the GI50 ([12]; Homo sapiens, UACC-62) was 1.75 µM. The activity at 10 µM ([12]; Homo sapiens) was -34.4%, the CC50 ([12]; Homo sapiens, UACC-62, 5 log dose, 48 h, read-out: LC50 (the source's name)) was 7.35 µM and the TGI ([12]; UACC-62, 5 log dose) was 3.59 µM.

For `Cc1nnc(Oc2ccc(NC(=O)Nc3ccc(Cl)cc3)cc2)c2ccccc12` [Compound 7e, 1–(4-Chlorophenyl)-3–(4-(4-methylphthalazin-1-yloxy)phenyl)urea], the activity at 10 µM [2] was 79.4%, the activity at 10 µM [4] was 47.3% and the activity at 10 µM [6] was 83.9%. For the same molecule, the activity at 10 µM [7] was 72%, the activity at 10 µM [9] was 72.7% and the activity at 10 µM [10] was 90.9%. It also gave an activity at 10 µM [11] of 51.4% and an activity at 10 µM ([12]; Homo sapiens) of 45.8%.

`CCOC(=O)N1CCN(c2nncc3ccccc23)CC1` [Compound 8a, Ethyl 4-(phthalazin-1-yl)piperazine-1-carboxylate] was tested, and the activity at 10 µM [2] was 110%, the activity at 10 µM [4] was 104% and the activity at 10 µM [6] was 106%. The activity at 10 µM [7] was 112%, the activity at 10 µM [9] was 103% and the activity at 10 µM [10] was 120%. The activity at 10 µM [11] was 91.3% and the activity at 10 µM ([12]; Homo sapiens) was 103%.
